According to patent publication US7786141B2 (Vertex Pharmaceuticals Incorporated, priority 2004, dated 2010):
Where two headings read alike, the source gives them in different places.

Columns and labels:
M4 muscarinic receptor = biological target: T1, M4 muscarinic receptor (Homo sapiens, UniProt P08173); assay: Functional mobilization of intracellular calcium (FLIPR) in M4-CHO cells; type: cell-based
T1 construct: expressed in transfected cells; host or cells: CHO (M4-CHO)
T1 sequence (P08173 1-479): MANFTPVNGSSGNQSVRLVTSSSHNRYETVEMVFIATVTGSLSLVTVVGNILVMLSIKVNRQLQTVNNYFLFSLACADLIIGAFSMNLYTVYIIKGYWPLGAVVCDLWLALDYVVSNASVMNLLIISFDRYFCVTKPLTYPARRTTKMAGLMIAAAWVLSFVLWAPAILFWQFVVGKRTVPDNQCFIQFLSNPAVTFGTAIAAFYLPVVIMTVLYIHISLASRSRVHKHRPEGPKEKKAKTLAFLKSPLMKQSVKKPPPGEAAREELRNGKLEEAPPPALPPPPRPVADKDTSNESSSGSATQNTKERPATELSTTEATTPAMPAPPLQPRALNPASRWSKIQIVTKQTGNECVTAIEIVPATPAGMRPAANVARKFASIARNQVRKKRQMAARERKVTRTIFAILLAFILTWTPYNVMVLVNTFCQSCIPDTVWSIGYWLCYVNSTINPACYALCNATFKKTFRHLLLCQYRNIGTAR
Method in brief: (§1)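 Steps: seed M1- or M4-CHO cells 18-24 hrs ahead; load calcium dye with 1 mM probenecid; add test compound (0.5% DMSO final), either alone for agonism or 15 min before EC80 carbachol for inhibition; record FLIPR fluorescence for 60 sec.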

M1 muscarinic receptor = biological target: T2, M1 muscarinic receptor (Homo sapiens, UniProt P11229); assay: Functional mobilization of intracellular calcium (FLIPR) in M1-CHO cells; type: cell-based
T2 construct: expressed in transfected cells; host or cells: CHO (M1-CHO)
T2 sequence (P11229 1-460): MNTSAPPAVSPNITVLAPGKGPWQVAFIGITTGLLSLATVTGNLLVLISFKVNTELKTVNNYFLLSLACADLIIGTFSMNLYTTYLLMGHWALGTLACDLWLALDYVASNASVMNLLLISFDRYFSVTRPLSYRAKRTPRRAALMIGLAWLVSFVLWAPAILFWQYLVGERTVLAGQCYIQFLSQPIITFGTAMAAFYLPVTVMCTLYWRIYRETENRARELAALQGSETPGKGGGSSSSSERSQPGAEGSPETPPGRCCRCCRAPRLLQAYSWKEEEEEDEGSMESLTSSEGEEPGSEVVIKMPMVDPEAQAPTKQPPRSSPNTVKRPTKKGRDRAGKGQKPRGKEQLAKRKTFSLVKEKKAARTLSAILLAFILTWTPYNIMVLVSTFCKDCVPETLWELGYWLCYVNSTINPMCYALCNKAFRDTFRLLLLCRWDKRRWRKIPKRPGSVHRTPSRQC
Method in brief: as §1

[1] = M4 receptor, calcium mobilization
[2] = M4 receptor, calcium mobilization, read-out: M4 Efficacy
[3] = M1 receptor, calcium mobilization
[4] = M1 receptor, calcium mobilization, read-out: M1 Efficacy
[5] = Table 4, 100% efficacy is the maximum response obtained with the Carbachol control
[6] = Table 4, modulating M4 receptor
[7] = Table 4, modulating M1 receptor
[8] = Table 4, M4 receptor, calcium mobilization (FLIPR)
[9] = Table 4, M1 receptor, calcium mobilization (FLIPR)

Row | Structure (SMILES) | M4 Activity (M4 muscarinic receptor; [1]) | Emax (M4 muscarinic receptor; [2]) [%] | M1 Activity (M1 muscarinic receptor; [3]) | Emax (M1 muscarinic receptor; [4]) [%] | Emax (M4 muscarinic receptor; [5]) [%] | M4 Activity (M4 muscarinic receptor; [6]) | Emax (M1 muscarinic receptor; [5]) [%] | M1 Activity (M1 muscarinic receptor; [7]) | M4 Activity (M4 muscarinic receptor; [8]) | M1 Activity (M1 muscarinic receptor; [9])
1 | Fc1ccc2c(c1)C1(CCN([C@@H]3C[C@@H]4CC[C@H]3C4)CC1)CO2 [compound 175] | xx (activity was measured to be between 0.1 μM and 1.0 μM) | 65 to 85 | xxx (activity was measured to be less than 0.1 μM) | 65 to 85 | – | – | – | – | – | –
2 | CN(C)C(=O)N1CC2(CCN(C[C@H]3CCN(C(=O)OCC4CC4)C3)CC2)c2cc(F)ccc21 [compound 651] | – | – | – | – | 25 to 100 | xxx (activity was measured to be less than 2.0 μM) | 25 to 100 | xxx (activity was measured to be less than 2.0 μM) | – | –
3 | O=C(N[C@H]1CCC2(CCN(CC3CC4C=CC3C4)CC2)c2ccccc21)C1CC1 (some centres unmarked) [compound 576] | – | – | – | – | 25 to 100 | xxx (activity was measured to be less than 2.0 μM) | 25 to 100 | xxx (activity was measured to be less than 2.0 μM) | – | –
4 | CCCOC(=O)N1CC[C@H](CN2CCC3(CC2)CN(C(=O)N(C)C)c2ccc(F)cc23)C1 [compound 510] | – | – | – | – | 25 to 100 | xxx (activity was measured to be less than 2.0 μM) | 25 to 100 | xxx (activity was measured to be less than 2.0 μM) | – | –
5 | CCOC(=O)N1C2CCC1CC(CN1CCC3(CC1)CNc1ccc(F)cc13)C2 (centres unmarked) [compound 368] | xx (activity was measured to be between 0.1 μM and 1.0 μM) | < 65 | xxx (activity was measured to be less than 0.1 μM) | < 65 | – | – | – | – | – | –
6 | COC(=O)N1CC2(CCN(C3CC4CCC(C3)N4C(=O)O[C@@H]3CCOC3)CC2)c2cc(F)ccc21 (some centres unmarked) [compound 192] | x (activity was measured to be greater than 1.0 μM) | 65 to 85 | xxx (activity was measured to be less than 0.1 μM) | 65 to 85 | – | – | – | – | – | –
7 | Clc1ccc2c(c1)C1(CCO2)CCN(CC2CCOCC2)CC1 [compound 288] | x (activity was measured to be greater than 1.0 μM) | < 65 | x (activity was measured to be greater than 1.0 μM) | < 65 | – | – | – | – | – | –
8 | CCCC(=O)N[C@H]1CC2(CCN([C@@H]3CC4CC[C@@H]3C4)CC2)c2ccccc21 [compound 1017] | – | – | – | – | 25 to 100 | – | 25 to 100 | – | xxx (activity was measured to be less than 2.0 μM) | x (activity was measured to be greater than 5.0 μM)
9 | Clc1ccc2c(c1)C1(CCO2)CCN(C2CCOCC2)CC1 [compound 178] | x (activity was measured to be greater than 1.0 μM) | 65 to 85 | xx (activity was measured to be between 0.1 μM and 1.0 μM) | > 85 | – | – | – | – | – | –
10 | CCOC(=O)N1CC[C@H](CN2CCC3(CC2)CN(C(C)=O)c2ccccc23)C1 [compound 482] | – | – | – | – | 25 to 100 | xxx (activity was measured to be less than 2.0 μM) | 25 to 100 | xxx (activity was measured to be less than 2.0 μM) | – | –
11 | CCC#CCOC(=O)N1CC[C@@H](CN2CCC3(CC2)CN(C(C)=O)c2ccccc23)C1 [compound 481] | – | – | – | – | 25 to 100 | xxx (activity was measured to be less than 2.0 μM) | 25 to 100 | xxx (activity was measured to be less than 2.0 μM) | – | –
12 | CCOC(=O)N1C2CCC1CC(N1CCC3(CC(=O)c4cc(F)ccc43)C1)C2 (centres unmarked) [compound 980] | – | – | – | – | 25 to 100 | – | > 100 | – | xxx (activity was measured to be less than 2.0 μM) | xxx (activity was measured to be less than 2.0 μM)
13 | CC(=O)N1CC2(CCN(C3CCN(C(=O)OCC(C)(C)C)CC3)CC2)c2ccccc21 [compound 496] | – | – | – | – | < 25 | x (activity was measured to be greater than 5.0 μM) | < 25 | x (activity was measured to be greater than 5.0 μM) | – | –
14 | CCOC(=O)N1CCC(N2CCC3(CC2)CN(C(C)=O)c2c(-c4ccc(C)cc4)cccc23)CC1 [compound 768] | – | – | – | – | < 25 | x (activity was measured to be greater than 5.0 μM) | 25 to 100 | x (activity was measured to be greater than 5.0 μM) | – | –
15 | CCOC(=O)N1C2CCC1CC(N1CCC3(CC1)CN(C(=O)c1ccc(F)cc1)c1ccc(F)cc13)C2 (centres unmarked) [compound 222] | x (activity was measured to be greater than 1.0 μM) | < 65 | x (activity was measured to be greater than 1.0 μM) | < 65 | – | – | – | – | – | –
16 | CCOC(=O)N1CCC(N2CCC3(CC2)CN(C2CCC4(CC2)OCCO4)c2ccc(F)cc23)CC1 [compound 689] | – | – | – | – | 25 to 100 | xxx (activity was measured to be less than 2.0 μM) | > 100 | xxx (activity was measured to be less than 2.0 μM) | – | –
17 | CCOC(=O)N1CCC(N2CCCC3(CC2)CN(C(C)=O)c2ccc(F)cc23)C1 (centres unmarked) [compound 473] | – | – | – | – | < 25 | x (activity was measured to be greater than 5.0 μM) | 25 to 100 | x (activity was measured to be greater than 5.0 μM) | – | –
18 | CCOC(=O)N1CCC(N2CCCC3(CC2)CN(C(C)=O)c2ccc(F)cc23)CC1 (centres unmarked) [compound 587] | – | – | – | – | 25 to 100 | xxx (activity was measured to be less than 2.0 μM) | 25 to 100 | xxx (activity was measured to be less than 2.0 μM) | – | –
19 | CCCN1CC2(CCN(C3CCN(C(=O)OCC)CC3)CC2)c2cc(F)ccc21 [compound 469] | – | – | – | – | 25 to 100 | xxx (activity was measured to be less than 2.0 μM) | 25 to 100 | xxx (activity was measured to be less than 2.0 μM) | – | –
20 | CN(C)C(=O)N1CC2(CCN(C3CCN(C(=O)c4cccc(F)c4)CC3)CC2)c2cc(F)ccc21 [compound 972] | – | – | – | – | < 25 | – | 25 to 100 | – | x (activity was measured to be greater than 5.0 μM) | xx (activity was measured to be between 2.0 μM and 5.0 μM)
21 | CC(=O)NC1CCC2(CCN(CCC3CCCN(C(C)=O)C3)CC2)c2ccccc21 (centres unmarked) [compound 874] | – | – | – | – | < 25 | – | 25 to 100 | – | x (activity was measured to be greater than 5.0 μM) | xx (activity was measured to be between 2.0 μM and 5.0 μM)
22 | C=Cc1ccc2c(c1)C1(CCN(C3CCN(C(=O)OCC)CC3)CC1)CN2C(C)=O [compound 11] | x (activity was measured to be greater than 1.0 μM) | < 65 | x (activity was measured to be greater than 1.0 μM) | < 65 | – | – | – | – | – | –
23 | COCCN1CC2(CCN(C3CCN(C(=O)OC(C)C)CC3)CC2)c2cc(F)ccc21 [compound 571] | – | – | – | – | 25 to 100 | xxx (activity was measured to be less than 2.0 μM) | 25 to 100 | xxx (activity was measured to be less than 2.0 μM) | – | –
